Target: T1, MAPK14 (p38 alpha) (Homo sapiens, UniProt Q16539)
T1 construct: purchased Thermo Fisher Scientific (Life Technologies) SelectScreen
Assay: SelectScreen Z'LYTE
Format: biochemical
How it was run: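 Percent values come from Thermo SelectScreen profiling of NU5455, combining activity and binding assays. CSF1R was run in Z'LYTE format at Km app ATP, and CAMK1 in Adapta format with ATP listed at 10.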

T1 sequence (Q16539 whole entry): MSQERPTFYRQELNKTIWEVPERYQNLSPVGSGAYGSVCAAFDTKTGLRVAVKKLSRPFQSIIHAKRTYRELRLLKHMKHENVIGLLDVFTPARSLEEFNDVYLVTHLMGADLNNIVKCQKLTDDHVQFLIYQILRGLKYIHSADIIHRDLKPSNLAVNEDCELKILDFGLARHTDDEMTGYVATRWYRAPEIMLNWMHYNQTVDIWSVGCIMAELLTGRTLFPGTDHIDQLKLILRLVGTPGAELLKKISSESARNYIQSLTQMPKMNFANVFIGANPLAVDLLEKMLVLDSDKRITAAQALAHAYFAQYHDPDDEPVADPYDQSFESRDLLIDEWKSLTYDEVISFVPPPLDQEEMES

CN(C(=O)CN1CCOCC1)c1ccc2sc3c(-c4cccc5c(=O)cc(N6CC7CCC(C6)O7)oc45)cccc3c2c1 [NU5455]
inhibition at 1 µM: 9.7%

Reference: PMC6934184, “Selective DNA-PKcs inhibition extends the therapeutic index of localized radiotherapy and chemotherapy” (The Journal of Clinical Investigation, 2019)
